Measured values from paper PMC11288129, “Diversely evolved xibalbin variants from remipede venom inhibit potassium channels and activate PKA-II and Erk1/2 signaling” (BMC Biology, 2024).
Entries after “also recorded” stand apart in the source; their conditions may differ. Positions of bridges follow the written chain, without caps; N, C: chain ends. No end group written: not given here.

System: voltage-gated sodium channels (Nav)
Assay: TEVC on panel of voltage-gated sodium channels
Assay type: cell-based
Settings: 1 µM
From the text: For the expression of Kv channels rat Kv1.1 (GenBank accession number: NM_173095 [88, 89]), rKv1.2 (NM_012970 [90, 91]), human Kv1.3 (NM_002232 [92, 93]), rKv1.4 (NM_012971 [94, 95]), rKv1.6 (NM_023954 [96, 97]), hKv2.1 (NM_004975 [98, 99]), hKv3.1 (NM_004976 [100, 101]), rKv4.2 (NM_031739 [102, 103]), hKv10.1 (NM_172362 [104, 105]), hERG1 [Kv11.1, (NM_000238 [106, 107])], and Shaker IR [from Drosophila melanogaster, (NM_167595 [108, 109])], Nav channels [rNav1.2 (NM_012647 [42, 110]), rNav1.4 (NM_013178 [111, 112]), hNav1.5 (NM_198056 [113, 114]), mNav1.6 (NM_001077499 [115, 116]), BgNav [from Blattella germanica, (DQ466887 [117, 118])] and the auxiliary subunits rβ1 (NM_001271045 [119, 120]), hβ1 (NM_001037 [121, 122]), and TipE [from D. melanogaster, (NM_079196 [109, 123])], and Cav channels hCav3.1 [124, 125], hCav3.2 [126, 127], and hCav3.3 [128, 129] in Xenopus oocytes, the linearized plasmids were transcribed using the T7 or SP6 mMESSAGEmMACHINE transcription kit (Ambion, Austin, TX, USA). […]
Whole-cell currents of oocytes were recorded 1 to 3 days after injection. […] The current–voltage (IV) relationships were determined by 100-ms step depolarizations between − 90 and + 40 mV, using 5 mV increments. […]

KRSCIRRFGRCDHRPNDCCYNSSCRCNLWGSNCRCQRMGLFQKWGK (disulfide 4-19, 11-24, 18-35, 26-33) [xib13]
inhibition of voltage-gated sodium channels: inhibit voltage-gated sodium channels; also recorded: mild inhibition; also recorded: most significant inhibition rates

RLFCIRHHKYCGHRPKRCCSGLFCRCNTFGTNCRCQSKGALGKLI (disulfide 4-19, 11-24, 18-35, 26-33) [xib1]
inhibition of voltage-gated sodium channels: inhibit voltage-gated sodium channels; also recorded: mild inhibition
